1 compound from paper PMC9047634 (RSC Advances, 2019) can be followed below.

What is called inhibition is the change of the read-out against control, counted positive when it falls.

In this assay the target is chorismate mutase (CM) (Mycobacterium tuberculosis, UniProt P9WIB9). Kind of assay: biochemical. Conditions: read-out: % Inhibition @ 30 μM ^a.
Sequence of chorismate mutase (CM) (P9WIB9 34-199): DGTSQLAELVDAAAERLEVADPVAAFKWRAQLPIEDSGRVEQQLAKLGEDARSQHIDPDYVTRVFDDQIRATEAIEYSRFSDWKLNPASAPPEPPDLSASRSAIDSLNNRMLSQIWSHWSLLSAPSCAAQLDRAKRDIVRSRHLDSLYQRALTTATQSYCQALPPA

Regarding `COc1ccc(CCNc2c([N+](=O)[O-])cc(C(=O)O)cc2S(N)(=O)=O)cc1OC` [G, 4-(3,4-dimethoxyphenethylamino)-3-nitro-5-sulfamoylbenzoic acid], the inhibition at 30 µM was found to be 57%.
